Source: patent US8263754B2, “Amphiphiles for protein solubilization and stabilization” (Wisconsin Alumni Research Foundation, priority 2008, dated 2012)

Key:
[1] = Critical micelle concentration (CMC) by dye solubilization (Orange OT or DPH); assay type: physicochemical; conditions: for critical micelle concentration (CMC): aqueous solubilization of Orange OT; for CMC / CMC (%): determined by DPH (diphenylhexatriene) or Orange OT
From the text: Aqueous solubilization of Orange OT was used to determine critical micelle concentrations (CMC). […] Facile self-association of these amphiphiles under these conditions may be hindered by the hydrophilicity and/or steric bulk of the triglucoside and dimaltoside headgroups.
The Critical Micelle Concentrations (CMCs) of compounds of the invention can be determined by standard techniques known to those of skill in the art. For example, CMCs of the carbohydrate-based amphiphiles described herein can be determined by monitoring uptake of a dye (e.g., Orange OT or 1,6-diphenylhexatriene) with increasing detergent concentration, monitored by UV-visible or fluorescence spectroscopy.

[2] = system: LHI-RC superassembly in Rhodobacter capsulatus membranes; conditions: for extraction of LHI-RC superassembly from R. capsulatus membranes: solubilized protein, optical spectroscopy; for Level (S/P solubilization rank and detergent strength): detergent at 10x CMC, 30 minutes at 32° C.
From the text: These complexes, normally embedded in the bacterial membrane, are highly pigmented and several outcomes from an assay are possible, including no degradation, partial degradation or complete degradation upon solubilization, or no solubilization. Thus, graded comparative evaluations could be obtained for a set of candidates such as the amphiphiles described herein.
In the engineered strain of R. capsulatus employed, the photosynthetic unit was comprised of a very labile LHI complex and a more resilient RC complex. An ideal amphiphile for this system will extract the intact LHI-RC superassembly from a bacterial membrane preparation and maintain the natural interactions among the components. Amphiphiles with a more disruptive effect will dissociate and denature LHI, leaving only intact RC, and even harsher amphiphiles will cause RC degradation. Each of these various outcomes can be assessed unambiguously via optical spectroscopy (FIG. 2 inset).
Measurements. The starting material for the screening protocols and stability measurements included specialized photosynthetic membranes from an engineered strain of Rhodobacter (R.) capsulatus, U43[pUHTM86Bgl]
To begin the solubilization and purification process, frozen aliquots of R. capsulatus membranes were thawed, homogenized, and equilibrated to 32° C. for 30 minutes. […] For subsequent experiments, the amphiphiles were evaluated at 10-fold CMC during the solubilization step.
The membrane samples were allowed to incubate with the amphiphile for 30 minutes at 32° C. The solubilized material was then separated from the membrane debris in an ultracentrifuge at 315,000×g at 4° C. for 30 minutes. […] After a UV-Vis-nearIR absorption spectrum was recorded, the resuspended pellet was discarded. […] The tubes were then incubated and inverted for 1 hour at 4° C.
Once binding was complete, samples were loaded onto resin-retaining spin columns (e.g., emptied His Spin Trap™ columns; GE Healthcare). The columns were then inserted into a 2 mL microcentrifuge tube to retain the filtered solution during centrifugation. […] Finally, protein was eluted into a fresh microcentrifuge tube with three 0.2 mL elution buffer aliquots (this buffer was identical to binding buffer with the addition of 1 M imidazole).
The R. capsulatus LHI-RC complexes extracted and purified by this procedure contain large numbers of cofactors that have absorptions at distinct wavelengths, and each component of the LHI-RC superassembly has a different inherent stability outside the lipid bilayer. The solubilization protocol outlined above therefore provides a multifaceted assessment of the efficacy of conventional detergents and novel amphiphiles. UV-Vis absorption spectroscopy data obtained at various stages of the protocol allow one to determine which protein components have degraded at these stages. […] The disruption potential was measured as the yield of superassembly extracted during solubilization (or, alternatively and more precisely, as the absence of superassembly in the pellet from the spin following solubilization).
The stabilizing propensity was determined from the spectra of the purified protein. An amphiphile was judged to be mild and stabilizing if it allowed the purification of fully intact LHI-RC superassembly (dominant absorption band at 875 nm). […] An amphiphile was judged to be of intermediate strength if it allowed for the purification of fully intact RC with damaged or missing LHI (dominant absorption at 800 nm with a shoulder at 875 nm; damaged LHI still bound to RC absorbs at 760 nm).
First, solubilization (illustrated in “STEP 1” of FIG. 12) denotes the ability of a surfactant to penetrate, integrate and disrupt a lipid bilayer.

LHI-RC superassembly = system: T1, LHI-RC superassembly; test: Stability over time of solubilized, purified LHI-RC superassembly (A875/A680 ratio); parameters: species or system Rhodobacter capsulatus; conditions: room temperature, 875 nm/680 nm absorption ratio over two to three weeks
T1 construct: Starting with protein complexes in their native lipid bilayer; made in house; host or cells: Rhodobacter capsulatus U43[pUHTM86Bgl], intracytoplasmic membranes (strain lacks LHII)
Description: FIG. 3. To monitor the ability of micelles of DDM, TPA-2, and MPA-2(C12) to stabilize membrane protein complexes, spectra of the protein purified by each detergent were recorded as a function of time. The initial spectrum (t=0) was acquired directly after elution of the protein from affinity chromatography. The integrity of the LHI-RC superassembly solubilized by these relatively mild detergents was monitored quantitatively from a scatter-corrected absorbance ratio (A875/A680). The ratio of a sample of completely folded and functional supperassembly is >14.5, and this ratio declines dramatically as the multi-subunit complex disassembles and denatures.
Stability was monitored by following the 875 nm/680 nm absorption ratio over a two to three weeks (absorption at 680 nm arises from oxidation of bacteriochlorophyll that has dissociated from LHI protein).
Similar criteria and protocols were used to judge the ability of amphiphiles to maintain solubilized and purified superassembly for extended periods. In this case, UV Vis-nearIR spectra were recorded at regular intervals. The degradation of the material could be monitored with the A875/A680 absorbance ratio, which decreased with time and sample integrity as the dominant 875 nm absorption of intact LHI disappeared and a 680 nm band appeared, indicating the presence of unbound, oxidized cofactors.

[3] = cited from earlier work; for Buffer Range: pH range
[4] = Solubility in water / aqueous buffer; assay type: physicochemical; conditions: for solubility in water: without cosolvents/additives

CCCCCCCCCCCCC(=O)NC(CO[C@@H]1O[C@H](CO)[C@@H](O)[C@H](O)[C@H]1O)CO[C@@H]1O[C@H](CO)[C@@H](O)[C@H](O)[C@H]1O [C12-MPA2]
critical micelle concentration (CMC) [1]: 2.4 mM | CMC [1]: 2.4 mM | CMC (%) [1]: 0.15% | yield of membrane protein complexes purified by affinity chromatography ([2]; after extraction from R. capsulatus membranes): far greater yield | membrane protein complexes in the sample extracted ([2]; intracytoplasmic membranes of R. capsulatus): ~30% | extraction of LHI-RC superassembly from R. capsulatus membranes [2]: extracted a moderate amount of intact LHI-RC superassembly

CCCCCCCCCCCCCCCCC(=O)NC(CO[C@@H]1O[C@H](CO)[C@@H](O)[C@H](O)[C@H]1O)CO[C@@H]1O[C@H](CO)[C@@H](O)[C@H](O)[C@H]1O [C16-MPA2]
Level (S/P solubilization rank and detergent strength) [2]: insoluble

CCCCCCCCCCCCO[C@@H]1O[C@H](CO)[C@@H](O[C@H]2O[C@H](CO)[C@@H](O)[C@H](O)[C@H]2O)[C@H](O)[C@H]1O [DDM, dodecyl-β-D-maltopyranoside, reference compound]
extraction of LHI-RC superassembly from R. capsulatus membranes [2]: comparable to TPA-2 and TPA-2-S | stability of solubilized LHI-RC superassembly (LHI-RC superassembly): begins to degrade immediately

O=S(=O)(O)CCN1CCN(CCO)CC1 [HEPES, 4-2-hydroxyethyl-1-piperazineethanesulfonic acid]
Buffer Range [3]: 6.8-8.2

O=S(=O)(O)CCCN1CCOCC1 [MOPS, 3-(N-morpholino)propanesulfonic acid]
Buffer Range [3]: 6.5-7.9

CCCCCCCCCCCCC(=O)NCCO[C@@H]1O[C@H](CO)[C@@H](O)[C@H](O)[C@H]1O [MPA1]
Level (S/P solubilization rank and detergent strength) [2]: insoluble | solubility in aqueous buffer [4]: not soluble in aqueous buffer | solubility in water [4]: not soluble in water without other additives

CCCCCCCCCCCCC(=O)NC(CO[C@@H]1O[C@H](CO)[C@@H](O)[C@H](O)[C@H]1O)(CO[C@@H]1O[C@H](CO)[C@@H](O)[C@H](O)[C@H]1O)CO[C@@H]1O[C@H](CO)[C@@H](O)[C@H](O)[C@H]1O [MPA3]
critical micelle concentration (CMC) [1]: 4.4 mM | CMC [1]: 4.4 mM | CMC (%) [1]: 0.35% | extraction of LHI-RC superassembly from R. capsulatus membranes [2]: did not extract any protein

CCCCCCCCCCCCC(=O)NCCO[C@@H]1O[C@H](CO)[C@@H](O[C@H]2O[C@H](CO)[C@@H](O)[C@H](O)[C@H]2O)[C@H](O)[C@H]1O [MPA4]
Level (S/P solubilization rank and detergent strength) [2]: insoluble | solubility in aqueous buffer [4]: not soluble in aqueous buffer | solubility in water [4]: not soluble in water without other additives

CCCCCCCCCCCCC(=O)NC(CO[C@@H]1O[C@H](CO)[C@@H](O[C@H]2O[C@H](CO)[C@@H](O)[C@H](O)[C@H]2O)[C@H](O)[C@H]1O)CO[C@@H]1O[C@H](CO)[C@@H](O[C@H]2O[C@H](CO)[C@@H](O)[C@H](O)[C@H]2O)[C@H](O)[C@H]1O [MPA5]
critical micelle concentration (CMC) [1]: 1.7 mM | CMC [1]: 1.7 mM | CMC (%) [1]: 0.16% | extraction of LHI-RC superassembly from R. capsulatus membranes [2]: did not extract any protein

O=S(=O)(O)CCN1CCN(CCS(=O)(=O)O)CC1 [PIPES, piperazine-N,N′-bis(2-ethanesulfonic acid)]
pKa at 25° C. [3]: 6.76 | Buffer Range [3]: 6.1-7.5

O=S(=O)(O)CCCNC(CO)(CO)CO [TAPS, 3-{[tris(hydroxymethyl)methyl]amino}propanesulfonic acid]
pKa at 25° C. [3]: 8.43 | Buffer Range [3]: 7.7-9.1

O=S(=O)(O)CCNC(CO)(CO)CO [TES, 2-{[tris(hydroxymethyl)methyl]amino}ethanesulfonic acid]
Buffer Range [3]: 6.8-8.2

CCCCC(CCCC)(CC(=O)NCCOC1OC(CO)C(O)C(O)C1O)c1ccccc1 (stereo not drawn) [TPA1]
Level (S/P solubilization rank and detergent strength) [2]: insoluble | solubility in water [4]: not water-soluble without other cosolvents

CCCCC(CCCC)(CC(=O)NC(CO[C@H]1OC(CO)[C@H](O)C(O)[C@H]1O)CO[C@H]1OC(CO)[C@H](O)C(O)[C@H]1O)c1ccccc1 (stereo partly drawn) [TPA2]
critical micelle concentration (CMC) [1]: 3.6 mM | CMC [1]: 3.6 mM | CMC (%) [1]: 0.24% | 875 nm/760 nm absorption ratio ([2]; solubilized protein from R. capsulatus membranes): ~8 | extraction of LHI-RC superassembly from R. capsulatus membranes [2]: intact LHI-RC superassembly in high yield | stability of solubilized LHI-RC superassembly (LHI-RC superassembly): remains stable for several days

CCCCC(CCCC)(CC(=O)NC(COC1OC(CO)C(O)C(O)C1O)(COC1OC(CO)C(O)C(O)C1O)COC1OC(CO)C(O)C(O)C1O)c1ccccc1 (stereo not drawn) [TPA3]
extraction of LHI-RC superassembly from R. capsulatus membranes [2]: no protein is extracted from the membrane

CCCCC(CCCC)(CC(=O)NCCO[C@@H]1O[C@H](CO)[C@@H](O[C@H]2O[C@H](CO)[C@@H](O)[C@H](O)[C@H]2O)[C@H](O)[C@H]1O)c1ccccc1 [TPA4]
critical micelle concentration (CMC) [1]: 4.0 mM | CMC [1]: 4 mM | CMC (%) [1]: 0.25% | extraction of LHI-RC superassembly from R. capsulatus membranes [2]: extracts a significant proportion of the membrane-embedded protein

CCCCC(CCCC)(CC(=O)NC(CO[C@@H]1O[C@H](CO)[C@@H](O[C@H]2O[C@H](CO)[C@@H](O)[C@H](O)[C@H]2O)[C@H](O)[C@H]1O)CO[C@@H]1O[C@H](CO)[C@@H](O[C@H]2O[C@H](CO)[C@@H](O)[C@H](O)[C@H]2O)[C@H](O)[C@H]1O)c1ccccc1 [TPA5]
extraction of LHI-RC superassembly from R. capsulatus membranes [2]: solubilized a small proportion of relatively intact LHI-RC superassembly

OCC1O[C@H](OCC23CC4CC(CC(C4)C2)C3)[C@H](O)C(O)[C@H]1O (stereo partly drawn) [TPA 42]
Level (S/P solubilization rank and detergent strength) [2]: insoluble

OC[C@H]1O[C@@H](OCCC23CC4CC(CC(C4)C2)C3)[C@H](O)[C@@H](O)[C@@H]1O [TPA 43]
Level (S/P solubilization rank and detergent strength) [2]: insoluble

O=C(O)CNC(CO)(CO)CO [Tricine, N-tris(hydroxymethyl)methylglycine]
Buffer Range [3]: 7.4-8.8

NC(CO)(CO)CO [Tris, tris(hydroxymethyl)methylamine]
Buffer Range [3]: 7.5-9.0
